This is an account of results in patent US7799821B2, “Therapeutic compounds” (Allergan, Inc., priority 2004, dated 2010).

Assay [1] deals with T1, hEP3A/Gqi5 (Homo sapiens, UniProt P43115).
T1 construct: expressed in transfected cells; host or cells: HEK-293(EBNA)
T1 sequence (P43115 1-390): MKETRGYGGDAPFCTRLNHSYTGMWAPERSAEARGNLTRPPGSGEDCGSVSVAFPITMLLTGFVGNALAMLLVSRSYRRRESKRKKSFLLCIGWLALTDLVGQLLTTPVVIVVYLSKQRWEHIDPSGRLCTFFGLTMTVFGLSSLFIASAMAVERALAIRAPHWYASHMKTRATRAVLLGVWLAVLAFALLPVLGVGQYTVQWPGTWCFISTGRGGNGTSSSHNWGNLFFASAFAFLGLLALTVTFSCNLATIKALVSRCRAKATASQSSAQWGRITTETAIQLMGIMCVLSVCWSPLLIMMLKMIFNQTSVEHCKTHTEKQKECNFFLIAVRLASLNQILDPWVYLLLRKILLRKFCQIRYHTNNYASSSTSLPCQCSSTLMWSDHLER
Nature of the assay: FLIPR calcium signal, hEP3A. It is filed as cell-based. Summed up:
(§1)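 HEK-293(EBNA) cells stably expressing the recombinant human receptor were loaded with 2 μM Fluo-4 AM for 45 min and read on FLIPR at 37° C in HBSS-HEPES pH 7.4. Peak fluorescence rise was expressed relative to buffer and standard agonist controls (BW245C, PGE2 or U-46619 by receptor); compounds were run 10^−5 to 10^−11 M in duplicate, n≧3.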

The target in assay [2] is T2, hDP/Gqs5 (Homo sapiens, UniProt Q13258).
T2 construct: expressed in transfected cells; host or cells: HEK-293(EBNA)
T2 sequence (Q13258 1-359): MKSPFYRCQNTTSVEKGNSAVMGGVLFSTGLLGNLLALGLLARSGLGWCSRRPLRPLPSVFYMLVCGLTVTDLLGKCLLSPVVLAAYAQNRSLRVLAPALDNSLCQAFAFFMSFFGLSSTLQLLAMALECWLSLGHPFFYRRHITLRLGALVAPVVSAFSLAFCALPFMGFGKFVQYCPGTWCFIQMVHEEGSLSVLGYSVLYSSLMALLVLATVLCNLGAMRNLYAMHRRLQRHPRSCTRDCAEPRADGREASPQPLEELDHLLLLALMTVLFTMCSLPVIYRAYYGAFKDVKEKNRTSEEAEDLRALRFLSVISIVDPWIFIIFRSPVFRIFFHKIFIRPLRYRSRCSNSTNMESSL
Nature of the assay: FLIPR calcium signal, hDP. It is filed as cell-based. As to conditions: read-out: Other Receptors EC50 hDP. Summed up:
as §1

Assay [3] deals with T3, hEP2/Gqs5 (Homo sapiens, UniProt P43116).
T3 construct: expressed in transfected cells; host or cells: HEK-293(EBNA)
Nature of the assay: FLIPR calcium signal, hEP2. It is filed as cell-based. Summed up: as §1

Assay [4] deals with T4, hEP4/Gqs5 (Homo sapiens, UniProt P35408).
T4 construct: expressed in transfected cells; host or cells: HEK-293(EBNA)
Nature of the assay: FLIPR calcium signal, hEP4. As to conditions: for EC50: unit inferred, read-out: EP4 data flipr EC50. It is filed as cell-based. Summed up:
as §1

The target in assay [5] is T5, EP4 receptors (Homo sapiens, UniProt P35408).
T5 construct: expressed in transfected cells; host or cells: HEK-293
Nature of the assay: Radioligand binding ([3H]PGE2), EP4. Summed up:
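Membranes from HEK-293 cells stably expressing the human receptor, resuspended at 1 mg/ml protein in TME buffer pH 7.4. Competition against 5 nM [3H]PGE2 for 60 min at 25 °C, ended by filtration on GF/B filters; non-specific binding defined with 10^−5 M unlabeled PGE2.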

The mark [6] stands for this setting: read-out: Other Receptors EC50 hEP3A.
[7] abbreviates: unit inferred, other columns of the table in nM, read-out: EP2 data flipr EC50.
The mark [8] stands for this setting: unit inferred, read-out: EP4 data KI.

Structures are written as SMILES. Like-named read-outs stand apart in the source and are kept apart here. Bounds are passed on as bounds.

T5 sequence (P35408 whole entry): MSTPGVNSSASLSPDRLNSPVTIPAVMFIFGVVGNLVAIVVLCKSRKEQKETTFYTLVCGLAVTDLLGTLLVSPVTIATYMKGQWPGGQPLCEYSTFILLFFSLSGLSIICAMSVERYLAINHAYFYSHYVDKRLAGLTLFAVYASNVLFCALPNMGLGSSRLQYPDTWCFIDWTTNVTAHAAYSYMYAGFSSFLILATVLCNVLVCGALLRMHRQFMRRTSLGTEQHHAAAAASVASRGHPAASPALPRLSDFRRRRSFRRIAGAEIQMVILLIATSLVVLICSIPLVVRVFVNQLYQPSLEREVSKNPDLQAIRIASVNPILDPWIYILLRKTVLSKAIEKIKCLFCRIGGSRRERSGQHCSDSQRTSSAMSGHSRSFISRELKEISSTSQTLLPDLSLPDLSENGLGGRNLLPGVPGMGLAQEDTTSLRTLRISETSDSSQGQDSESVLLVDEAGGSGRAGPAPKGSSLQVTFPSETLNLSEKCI
T4 sequence (P35408 whole entry): as above
T3 sequence (P43116 whole entry): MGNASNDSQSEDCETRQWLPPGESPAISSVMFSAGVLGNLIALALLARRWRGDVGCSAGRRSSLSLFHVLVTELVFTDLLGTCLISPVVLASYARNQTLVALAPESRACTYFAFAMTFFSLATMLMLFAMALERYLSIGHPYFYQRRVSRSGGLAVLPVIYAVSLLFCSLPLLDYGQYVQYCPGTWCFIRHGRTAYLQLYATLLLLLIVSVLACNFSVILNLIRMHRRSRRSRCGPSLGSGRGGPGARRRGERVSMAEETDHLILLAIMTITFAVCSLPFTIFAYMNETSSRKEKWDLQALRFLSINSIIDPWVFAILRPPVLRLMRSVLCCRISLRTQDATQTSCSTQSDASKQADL

For `CCCCCCC(O)c1ccc(N2C(=O)CC[C@@H]2CCCc2ccc(C(=O)O)s2)cc1` (single isomer, unassigned) [drawing 155], the EC50 amounted to 7 nM in assay [1] (setting [6]) and 37 nM in assay [2].

Regarding `CCCCCCC(O)c1ccc(N2C(=O)CC[C@@H]2CCCc2ccc(C(=O)O)s2)cc1` (single isomer, unassigned) [drawing 184], the EC50 was 33 nM in assay [1] (setting [6]), 5 nM in assay [3] (setting [7]) and 106 nM in assay [2].

`CCCCCCC(O)c1ccc(N2C(=O)CC[C@@H]2COCc2ccc(C(=O)O)s2)cc1` (single isomer, unassigned) [drawing 152]: the results for the EC50 in assay [1] (setting [6]), in assay [3] (setting [7]) and in assay [2] were 71 nM, 134 nM and 6830 nM, respectively.

Take `CCCCCC(C)c1ccc([C@@H]2[C@@H](C/C=C\CCCC(=O)O)[C@H](C#N)C[C@H]2C)cc1` (stereo partly shown): the EC50 in assay [1] (Table 3, third part, read-out: Ca2+ Signal-EC50 (nM) EP3) is 10000 nM; in assay [3] (Table 3, third part, value outside parentheses, read-out: Ca2+ Signal-EC50 (nM) EP2), 34 nM. Besides, the “Ca2+ Signal-EC50 (nM) EP4” value in assay [4] (Table 3, third part) is given as “not active”. Moreover, the Ki in assay [5] (Table 3, third part, read-out: BINDING-Ki (nM) EP4) is over 10000 nM.

As for `CCCCCC(O)c1ccc(N2C(=O)CC[C@@H]2CCCc2ccc(C(=O)O)s2)cc1` (single isomer, unassigned) [drawing 180], the EC50 turned out to be 71 nM in assay [1] (setting [6]), 134 nM in assay [3] (setting [7]) and 6830 nM in assay [2]. In assay [5] (setting [8]), the Ki was 3840 nM.

Regarding `CCCCCC(=O)c1ccc(N2C(=O)CC[C@@H]2CCCc2ccc(C(=O)O)s2)cc1`, the EC50 was 2340 nM in assay [1] (setting [6]), 16 nM in assay [3] (setting [7]), over 10000 nM in assay [4] and 7700 nM in assay [2]. Further, the Ki in assay [5] (setting [8]) is over 10000 nM.

As to `CCCCCC(O)c1ccc(N2C(=O)CC[C@@H]2CCCc2ccc(C(=O)O)s2)cc1` (stereo partly shown) [drawing 173], the figures for the EC50 in assay [1] (setting [6]), in assay [3] (setting [7]) and in assay [2] were 155 nM, 5 nM and 1230 nM, respectively. Moreover, the Ki in assay [5] (setting [8]) is over 10000 nM.

`CCCCCC(O)c1ccc(N2C(=O)CC[C@@H]2COCc2ccc(C(=O)O)s2)cc1` (single isomer, unassigned) [drawing 177]: the EC50 in assay [1] (setting [6]) is 1200 nM; in assay [3] (setting [7]), 15 nM; in assay [4], over 10000 nM; in assay [2], 6800 nM. Besides, the Ki in assay [5] (setting [8]) amounted to 6030 nM.

`CCCCCC(O)c1ccc(N2C(=O)CC[C@@H]2CCCc2ccc(C(=O)O)s2)cc1` (single isomer, unassigned) [drawing 178]: the concentration giving a half-maximal response (EC50) in assay [1] (setting [6]) is 12 nM; in assay [3] (setting [7]), 6 nM; in assay [4] it was over 10000 nM; in assay [2], 812 nM. Besides, the inhibitory constant (Ki) in assay [5] (setting [8]) was over 10000 nM.

In the case of `CCCCCC(O)c1ccc(N2C(=O)CC[C@@H]2CCCc2ccc(C(=O)O)s2)cc1` (single isomer, unassigned) [drawing 179], the EC50 is 156 nM in assay [1] (setting [6]), 1.6 nM in assay [3] (setting [7]), over 10000 nM in assay [4] and 296 nM in assay [2]. The Ki in assay [5] (setting [8]) is 4850 nM.

`CCCCCCC(O)c1ccc(N2C(=O)CC[C@@H]2CCCc2ccc(C(=O)O)s2)cc1` (single isomer, unassigned) [drawing 183]: the EC50 in assay [1] (setting [6]) was found to be 7 nM; in assay [3] (setting [7]), 16 nM; in assay [2], 37 nM.

As to `CCCCCC(O)c1ccc(N2C(=O)CC[C@@H]2COCc2ccc(C(=O)O)s2)cc1` (single isomer, unassigned) [drawing 176], the EC50 was 153 nM in assay [1] (setting [6]), 62 nM in assay [3] (setting [7]), over 10000 nM in assay [4] and 7750 nM in assay [2]. Besides, the Ki in assay [5] (setting [8]) was over 10000 nM.

Consider `CCCCCC(O)c1ccc(N2C(=O)CC[C@@H]2COCc2ccc(C(=O)O)s2)cc1` (single isomer, unassigned) [drawing 148], for which the EC50 is 153 nM in assay [1] (setting [6]), 62 nM in assay [3] (setting [7]), over 10000 nM in assay [4] and 7750 nM in assay [2]. Also, the Ki in assay [5] (setting [8]) is over 10000 nM.

Take `CCCCCCC(O)c1ccc(N2C(=O)CC[C@@H]2CCCc2ccc(C(=O)O)s2)cc1` (single isomer, unassigned) [drawing 156]: the 50% effective concentration (EC50) in assay [1] (setting [6]) worked out at 33 nM; in assay [3] (setting [7]), 5 nM; in assay [2], 106 nM.

For `CC(C)(C)c1ccc(N2C(=O)CC[C@@H]2COCc2ccc(C(=O)O)o2)cc1`, the EC50 was over 10000 nM in assay [1] (setting [6]), 442 nM in assay [3] (setting [7]), over 10000 nM in assay [4] and 1920 nM in assay [2]. Moreover, the Ki in assay [5] (setting [8]) is over 10000 nM.

As to `CCCCCC(O)c1ccc(N2C(=O)CC[C@@H]2CCCc2ccc(C(=O)O)s2)cc1` (stereo partly shown) [drawing 145], the concentration for a half-maximal effect (EC50) in assay [1] (setting [6]) is 155 nM; in assay [3] (setting [7]), 5 nM; in assay [2], 1230 nM. For the same compound, the Ki in assay [5] (setting [8]) was over 10000 nM.

Regarding `CC(C)(C)c1ccc(N2C(=O)CC[C@@H]2COCc2ccc(C(=O)O)s2)cc1`, the EC50 in assay [1] (setting [6]) is 19200 nM; in assay [3] (setting [7]), 1340 nM; in assay [4], over 10000 nM; in assay [2], 2320 nM. For the same compound, the Ki in assay [5] (setting [8]) is over 10000 nM.

On to `CC(C)(C)c1ccc(N2C(=O)CC[C@@H]2CCCCCCC(=O)O)cc1`, for which the EC50 is 19500 nM in assay [1] (setting [6]), 4120 nM in assay [3] (setting [7]), over 10000 nM in assay [4] and over 10000 nM in assay [2]. Further, in assay [5] (setting [8]), the Ki was over 10000 nM.

Regarding `CCCCCC(O)c1ccc(N2C(=O)CC[C@@H]2CCCc2ccc(C(=O)O)s2)cc1` (single isomer, unassigned) [drawing 151], the EC50 in assay [1] (setting [6]) was 156 nM; in assay [3] (setting [7]) it was 1.6 nM; in assay [4] it was over 10000 nM; in assay [2] it was 296 nM.
